Counter-ions that a name gives are not always drawn.
Tests used:
[1] = target: T1, recombinant human B1 receptors (Homo sapiens, UniProt P46663); test: Functional assay: cytosolic calcium ion concentration measured with plate reader fluorimeter in CHO-B1 cells, agonist LysDABK; format: cell-based; settings: CHO-B1 cells, LysDABK at EC80, [Ca2+]i; read-out: B1 func.
T1 construct: host or cells: CHO (CHO-B1)
T1 sequence (P46663 1-353): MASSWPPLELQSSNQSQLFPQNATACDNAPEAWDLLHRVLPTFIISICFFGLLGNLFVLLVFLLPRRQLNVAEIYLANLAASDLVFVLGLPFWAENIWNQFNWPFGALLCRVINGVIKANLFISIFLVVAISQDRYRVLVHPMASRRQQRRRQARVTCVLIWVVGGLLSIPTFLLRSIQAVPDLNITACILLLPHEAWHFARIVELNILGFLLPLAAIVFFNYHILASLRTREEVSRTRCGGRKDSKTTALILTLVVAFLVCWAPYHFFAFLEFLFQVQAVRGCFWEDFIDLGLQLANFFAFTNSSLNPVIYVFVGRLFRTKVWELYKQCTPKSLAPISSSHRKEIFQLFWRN
Experimental: Assessment of Antagonist Potency at B1 and B2 Receptors In Vitro by Measurement of Cytosolic Calcium Ion Concentration with a Plate Reader Fluorimeter in Cells Expressing Recombinant Human B1 or B2 Receptors
Chinese hamster ovary (CHO) cells stably expressing recombinant human B1 (CHO-B1, Euroscreen) or B2 (CHO-B2, Perkin-Elmer) receptors were cultured in Dulbecco's Modified Eagle's Medium (DMEM) containing 10% Fetal Calf Serum (FCS), 100 U/ml penicillin, 0.1 mg/ml streptomycin, 0.25 μg/ml amphotericin B, 1% Minimum Essential Medium Eagle (MEM), non essential amino acid solution, 600 μg/ml G418, 1% pyruvate (for the B2 cell line). Cells were kept at 37° C. in a humidified incubator in an atmosphere of 5% CO2/95% air and were passaged 1:4 three times a week. Cells were plated at 1.5-2.5×10^4 cell/well on standard 96-well microplates, measurements of cytosolic calcium ion concentration ([Ca^2+]i) were carried out 1-2 days after cell plating.
Measurements of [Ca^2+]i were carried out on CHO-B1 and CHO-B2 cells stably expressing human B1 and B2 receptors, respectively. Cells were grown in standard 96-well microplates and before the measurement were loaded with a fluorescent Ca^2+-sensitive dye, fluo-4/AM (2 μM): after removing the culture medium the dye was added to the cells (dissolved in assay buffer: 145 mM NaCl, 5 mM KCl, 2 mM MgCl2, 2 mM CaCl2, 10 mM HEPES, 20 mM D-glucose, 2 mM probenecid, 100 μl/well) and cells were incubated at 37° C. in a humidified incubator in an atmosphere of 5% CO2/95% air for 40-120 min. To stop dye loading cells were washed twice with assay buffer. After washing, various concentrations of the test compounds (diluted in extracellular medium from a DMSO stock solution, final DMSO concentration was <0.1%) or buffer were added to each well depending on the experimental setup. After incubation at 37° C. for 20-25 min. baseline and agonist-evoked changes of [Ca^2+]i were measured column by column with a plate reader fluorimeter (Fluoroskan Ascent, Labsystems). Excitation and detection of emission was carried out from the bottom of the plate. Filters used for Fluo-4: excitation filter—485 nm, emission filter—538 nm. The whole measurement process was performed at 37° C. and was controlled by custom software. Inhibitory potency of the test compounds was assessed by measuring the reduction in the agonist-evoked [Ca^2]i-elevation in the presence of different concentrations of the compounds. The agonists were LysDABK for CHO-B1, and bradykinin for CHO-B2 cells. Agonists were applied at an EC80 concentration, the EC80-values were derived from daily determined dose-response curves. Fluorescence data were expressed as ΔF/F (fluorescence change normalized to baseline). All treatments on a single plate were measured in multiple wells. Data from all wells with the same treatment were averaged and the average values were used for analysis. Inhibitory potency of a compound at a single concentration point was expressed as percent inhibition of the control agonist response. Sigmoidal concentration-inhibition curves were fitted to the data (derived from at least three independent experiments) and IC50-values were determined as the concentration that produces half of the maximal inhibition caused by the compound.

[2] = target: T2, human recombinant bradykinin B1 receptor (Homo sapiens, UniProt P46663); test: Human recombinant bradykinin B1 receptor binding; settings: radioligand [3H]-[Des-Arg10] Kallidin, CHO cell membranes; read-out: B1 binding
T2 construct: purchased Euroscreen ES-091; host or cells: CHO cells
T2 sequence (P46663 1-353): T1 sequence (P46663 1-353)
Experimental: 1. Human Recombinant Bradykinin B1 Receptor Binding
Binding assays were carried out on human recombinant bradykinin) receptors (expressed in CHO cells) according to the Euroscreen Technical Data Sheet (Cat.No.:ES-091). 20 μg protein/tube was incubated with [3,4-prolyl-3,4-^3H(N)]-[Des-Arg^10] Kallidin as radioligand. Non specific binding was determined in the presence of 10 μM Lys-des-Arg^9-Bradykinin. The final incubation volume was 250 μl. Samples were incubated for 15 min. at 25° C. then were rapidly vacuum filtered through GF/B filters presoaked for at least 1 h in 0.5% PEI. Radioactivity was determined by liquid scintillation spectroscopy.

| Compound | IC50 [1] | Ki [2] |
| --- | --- | --- |
| 4-[1-(3,4-Dichloro-phenoxy)-phenylsulfamoyl]-N-[3-(4-pyridin-4-yl-piperazin-1-yl)-propyl]-benzamide [Example 66] | < 20 nM | < 20 nM |
| O=C(NCCN1CCN(c2ccncc2)CC1)c1ccc(S(=O)(=O)Nc2ccccc2Oc2ccc(Cl)cc2Cl)cc1 [Example 1, 4-[2-(2,4-Dichloro-phenoxy)-phenylsulfamoyl]-N-{2-[4-pyridin-4-yl-piperazin-1-yl)-ethyl]-benzamide dihydrochloride] | < 20 nM | < 20 nM |
| O=C(NCCc1ccc(C2=NCCN2)cc1)c1ccc(S(=O)(=O)Nc2ccccc2Oc2ccc(Cl)cc2Cl)cc1 [Example 2, 4-[2-(2,4-Dichloro-phenoxy)-phenylsulfamoyl]-N-{2-[4-(4,5-dihydro-1H-imidazol-2-yl)-phenyl]-ethyl}-benzamide trifluoroacetate] | < 20 nM | < 20 nM |
| O=C(NCCCN1CCC(N2CCCCC2)CC1)c1ccc(S(=O)(=O)Nc2ccccc2Oc2ccc(Cl)cc2Cl)cc1 [Example 3, N-(3-[1,4′]Bipiperidinyl-1′-yl-propyl)-4-[2-(2,4-dichloro-phenoxy)-phenylsulfamoyl]-benzamide] | < 20 nM | < 20 nM |
| O=C(NCCc1ccc(C2=NCCN2)cc1)c1ccc(S(=O)(=O)Nc2ccccc2Oc2ccc(Cl)c(Cl)c2)cc1 [Example 4, 4-[2-(3,4-Dichloro-phenoxy)-phenylsulfamoyl]-N-{2-[4-(4,5-dihydro-1H-imidazol-2-yl)-phenyl]-ethyl}-benzamide] | < 20 nM | < 20 nM |
| O=C(NCCCN1CCC(N2CCCCC2)CC1)c1ccc(S(=O)(=O)Nc2ccccc2Oc2ccc(Cl)c(Cl)c2)cc1 [Example 5, N-(3-[1,4′]Bipiperidinyl-1′-yl-propyl)-4-[2-(3,4-dichloro-phenoxy)-phenylsulfamoyl]-benzamide] | < 20 nM | < 20 nM |
| O=C(NCCc1ccc(C2=NCCN2)cc1)c1ccc(S(=O)(=O)Nc2ccccc2Oc2ccc(Cl)cc2)cc1 [Example 6, 4-[2-(4-Chloro-phenoxy)-phenylsulfamoyl]-N-{2-[4-(4,5-dihydro-1H-imidazol-2-yl)-phenyl]-ethyl}-benzamide] | < 20 nM | < 20 nM |
| O=C(NCCc1ccc(C2=NCCN2)cc1)c1ccc(S(=O)(=O)Nc2ccccc2Oc2ccc(Br)cc2)cc1 [Example 7, 4-[2-(4-Bromo-phenoxy)-phenylsulfamoyl]-N-{2-[4-(4,5-dihydro-4H-imidazol-2-yl)-phenyl]-ethyl}-benzamide] | < 20 nM | < 20 nM |
| O=C(Nc1ccc(N2CCC(N3CCCCC3)CC2)cc1)c1ccc(S(=O)(=O)Nc2ccccc2Oc2ccc(Cl)cc2Cl)cc1 [Example 8, N-(4-[1,4′]Bipiperidinyl-1′-yl-phenyl)-4-[2-(2,4-dichloro-phenoxy)-phenylsulfamoyl]-benzamide] | 20 to 100 nM | < 20 nM |
| O=C(N[C@H]1CC[C@H](CCN2CCCC2)CC1)c1ccc(S(=O)(=O)Nc2ccccc2Oc2ccc(Cl)cc2Cl)cc1 [Example 9, trans-4-[2-(2,4-Dichloro-phenoxy)-phenylsulfamoyl]-N-[4-(2-pyrrolidin-1-ylethyl)-cyclohexyl]-benzamide] | 20 to 100 nM | < 20 nM |

Further lines, results first:

| IC50 [1] | Ki [2] | Compound |
| --- | --- | --- |
| 20 to 100 nM | < 20 nM | O=C(NCCN1CCN(c2ccncc2)CC1)c1cccc(S(=O)(=O)Nc2ccccc2Oc2ccc(Cl)cc2Cl)c1 [Example 10, 3-[2-(2,4-Dichloro-phenoxy)-phenylsulfamoyl]-N-[2-(4-pyridin-4-yl-piperazin-1-yl)-ethyl]-benzamide dihydrochloride] |
| 20 to 100 nM | 20 to 100 nM | O=C(NCCC1CCNCC1)c1ccc(S(=O)(=O)Nc2ccccc2Oc2ccc(Cl)cc2Cl)cc1 [Example 11, 4-[2-(2,4-Dichloro-phenoxy)-phenylsulfamoyl]-N-(2-piperidin-4-ylethyl)-benzamide trifluoroacetate] |
| 20 to 100 nM | 20 to 100 nM | O=C(NCCN1CCN(c2ccccn2)CC1)c1ccc(S(=O)(=O)Nc2ccccc2Oc2ccc(Cl)cc2Cl)cc1 [Example 20, 4-[2-(2,4-Dichloro-phenoxy)-phenylsulfamoyl]-N-[2-(4-pyridin-2-yl-piperazin-1-yl)-ethyl]-benzamide trifluoroacetate] |
| < 20 nM | < 20 nM | O=C(NCCc1ccc(C2=NCCN2)cc1)c1ccc(S(=O)(=O)Nc2ccccc2Oc2ccc(Br)cc2Cl)cc1 [Example 22, 4-[2-(4-Bromo-2-chloro-phenoxy)-phenylsulfamoyl]-N-{2-[4-(4,5-dihydro-1H-imidazol-2-yl)-phenyl]-ethyl}-benzamide] |
| 100 to 500 nM | 20 to 100 nM | N=C(N)NCc1ccc(CNC(=O)c2ccc(S(=O)(=O)Nc3ccccc3Oc3ccc(Br)cc3)cc2)cc1 [Example 23, 4-[2-(4-Bromo-phenoxy)-phenylsulfamoyl]-N-(4-guanidinomethyl-benzyl)-benzamide hydrochloride] |
| < 20 nM | < 20 nM | CN1CCC(N2CCC(CCNC(=O)c3ccc(S(=O)(=O)Nc4ccccc4Oc4ccc(Cl)cc4Cl)cc3)CC2)CC1 [Example 24, 4-[2-(2,4-Dichloro-phenoxy)-phenylsulfamoyl]-N-[2-(1-methyl-[1,4′]bipiperidinyl-4-yl)-ethyl]-benzamide] |
| < 20 nM | < 20 nM | CC(CNC(=O)c1ccc(S(=O)(=O)Nc2ccccc2Oc2ccc(Cl)cc2Cl)cc1)N1CCN(c2ccncc2)CC1 (stereo not drawn) [Example 28, 4-[2-(2,4-Dichloro-phenoxy)-phenylsulfamoyl]-N-{2-[4-pyridin-4-yl-piperazin-1-yl)-propyl]-benzamide] |
| 20 to 100 nM | 20 to 100 nM | O=C(NCCNC(=O)C1CCNCC1)c1ccc(S(=O)(=O)Nc2ccccc2Oc2ccc(Cl)cc2Cl)cc1 [Example 29, Piperidine-4-carboxylic acid (2-{4-[2-(2,4-dichloro-phenoxy)-phenylsulfamoyl]-benzoylamino}-ethyl)-amide hydrochloride] |
| 20 to 100 nM | 20 to 100 nM | O=C(NCCCC1CCNCC1)c1ccc(S(=O)(=O)Nc2ccccc2Oc2ccc(Br)cc2Cl)cc1 [Example 30, 4-[2-(4-Bromo-2-chloro-phenoxy)-phenylsulfamoyl]-N-(3-piperidin-4-yl-propyl)-benzamide hydrochloride] |
| 20 to 100 nM | 20 to 100 nM | O=C(CCNC(=O)c1ccc(S(=O)(=O)Nc2ccccc2Oc2ccc(Cl)cc2Cl)cc1)NC1CCNCC1 [Example 33, 4-[2-(2,4-Dichloro-phenoxy)-phenylsulfamoyl]-N-[2-(piperidin-4-ylcarbamoyl)-ethyl]-benzamide acetate] |
| 20 to 100 nM | < 20 nM | Cc1cccc(N2CCN(CCNC(=O)c3ccc(S(=O)(=O)Nc4ccccc4Oc4ccc(Cl)cc4Cl)cc3)CC2)n1 [Example 36, 4-[2-(2,4-Dichloro-phenoxy)-phenylsulfamoyl]-N-{2-[4-(6-methyl-pyridin-2-yl)-piperazin-1-yl]-ethyl}-benzamide] |

— patent publication US20100075978A1, “SULFONAMIDE DERIVATIVES AS BRADYKININ ANTAGONISTS” (priority 2006, published 2010)
